How the values were obtained:
[1] = system: three S. aureus strains; test: Time-kill kinetics, summary; assay type: cell-based, Staphylococcus aureus; settings: at MIC
Procedure: Time-kill assays were performed for W2-FL10 against S. aureus ATCC 25923, S. aureus RN4220, and MRSA Xen 30 to determine the bacteriostatic (suppresses growth) or bactericidal (>3 log reduction in CFUs) activity of the compound, allowing for the determination of cell survival percentage per minute ([19]).
To determine the kill rate of the lipopeptide, exponentially growing S. aureus strains were prepared as described in the “Antibacterial activity: broth microdilution assay” section (OD600 = 0.4, ~10^7 CFU/mL; 1:20 dilution was conducted to obtain ~10^5 CFU/mL) ([24], [55]). Thereafter, 200 µL of the bacterial suspension (in MHB) was dispensed into a clear 96-well plate containing 12.5 or 25 µg/mL of W2-FL10, and plates were incubated at 37°C. Aliquots of 20 µL were collected at different time intervals (0, 1, 2, 4, 8, and 24 h), diluted in 180 µL PBS in a clear 96-well plate (from 10^−2 to 10^−8), and 100 µL of the respective dilution was spread onto LB agar plates. Undiluted samples of 20 µL were spot-plated onto LB agar to confirm the absence of cells at 8 and/or 24 h. The LB agar plates were then incubated overnight at 37°C and the CFU/mL was determined. A positive control of bacterial cells without peptide and a negative control with only LB were included. All the tests were performed in triplicate, with independent duplicates. […]

[2] = system: MRSA Xen 30; test: Scanning electron microscopy; assay type: cell-based, Staphylococcus aureus; settings: 25 µg/mL, 1 h
Procedure: (§1) SEM was performed to visualize the bacterial membrane morphology following treatment ([24]). Briefly, the S. aureus strains were prepared as described in the “Antibacterial activity: broth microdilution assay” section and harvested by centrifugation at 3,000 rpm for 10 min. The cells were re-suspended in PBS at a dilution of ~10^7 CFU/mL (OD600 = 0.4). The diluted cultures were then treated with 25 µg/mL of W2-FL10, for 1 h, while cells without W2-FL10 were used as a control. Specimens were resuspended in 2.5% (vol/vol) glutaraldehyde solution in 0.1 M PBS (pH 7.2) and fixed for approximately 24 h. After the primary fixation, bacterial cells were pelleted and rinsed with PBS. Dehydration of samples through an ethanol series (30%, 50%, 70%, 90%, 95%, and 100% for 10 min each) was performed, followed by filtration onto a filter paper (pore size of 0.2 µm), which was glued onto an aluminum grid (11 mm diameter). The grid was dried with hexamethyldisilazane and coated with gold-palladium alloy. The grids were then inspected with a Tescan MIRA3 RISE Scanning Electron Microscope at the Electron Microscope Unit of the University of Cape Town.

[3] = system: S. aureus ATCC 25923; test: Scanning electron microscopy; assay type: cell-based, Staphylococcus aureus; settings: 25 µg/mL, 1 h
Procedure: as §1

[4] = system: S. aureus RN4220; test: Scanning electron microscopy; assay type: cell-based, Staphylococcus aureus; settings: 25 µg/mL, 1 h; primarily one large lesion per cell
Procedure: as §1

[5] = Lipophilicity, miniaturized shake-flask log D; assay type: physicochemical; settings: 96-well, 1-octanol/phosphate buffer pH 7.4, shaken 2 h at 25°C, HPLC-UV
Procedure: The lipophilicity of the compound was measured using a miniaturized shake-flask method, in 96-well plate format ([48]). Briefly, equal volumes of 1-octanol and phosphate buffer at pH 7.4 were added to each compound in a deep well plate. The plate was shaken vigorously for 2 h at 25°C. The phases were then carefully separated and transferred to another plate. Analysis was performed by HPLC-UV and log D values were determined from the peak areas of the compound in octanol and buffer phases.

In the case of `CCCCCCCC1CC(=O)N[C@H](CC(C)C)C(=O)N[C@@H](CO)C(=O)N[C@@H]([C@@H](C)O)C(=O)N[C@H](Cc2ccccc2)C(=O)N[C@@H](CC(C)C)C(=O)O1` (some centres unmarked) [W2-FL10, serrawettin W2-FL10], the “time within which >90% bactericidal action occurred” value [1] is reported as 4 to 8 h, the “morphology by SEM, in words” value [2] is reported as “Minor morphological changes” and the “morphology by SEM, in words” value [3] is reported as “Minor morphological changes”. The “morphology by SEM, in words” value [4] was “more significant cell damage” and the logD at 2 h [5] was 2.5.

— PMC11218446, “Antibacterial efficacy and membrane mechanism of action of the Serratia-derived non-ionic lipopeptide, serrawettin W2-FL10” (Microbiology Spectrum, 2024)
